Earlier results as cited in patent US20220273590A1, “COMPOUNDS FOR PREVENTION AND TREATMENT OF POST-OPERATIVE COGNITIVE DYSFUNCTION” (ABREXA PHARMACEUTICALS, INC., priority 2019, published 2022).

Details: cited from earlier work

Structure (SMILES): Cc1cccc([C@H](C)c2cnc[nH]2)c1C [Dexmedetomidine]
- efficacy for POCD (Skvarc et al. (2018)): failed to show efficacy

Structure (SMILES): [Mg+2] [Magnesium]
- reduction of POCD (administered intravenously during cardiac surgery, clinical trial NCT00041392): failed to reduce POCD

Structure (SMILES): CCN(C)C(=O)Oc1cccc([C@H](C)N(C)C)c1 [Rivastigmine]
- efficacy for the treatment of POCD (clinical investigation NCT00835159, at termination): no efficacy was observed
- safety in the treatment of POCD (seriously ill patients after surgery, clinical investigation NCT00835159 terminated): too dangerous
